From US7700654B2 (LTS Lohmann Therapie-Systeme AG, priority 2005, dated 2010)

Columns and labels:
[1] = molecular target: T1, human androgen receptor (hAR) (Homo sapiens, UniProt P10275); assay: reporter gene-based (MMTV-luc luciferase) test for antiandrogenic activity in transfected CV1 cells; type: cell-based; settings: compounds at 10 μM; high R1881 concentration 3×10^−8 M
T1 construct: expressed in transfected cells; host or cells: CV1 monkey kidney cells (lacking endogenous androgen receptor)
T1 sequence (P10275 1-920): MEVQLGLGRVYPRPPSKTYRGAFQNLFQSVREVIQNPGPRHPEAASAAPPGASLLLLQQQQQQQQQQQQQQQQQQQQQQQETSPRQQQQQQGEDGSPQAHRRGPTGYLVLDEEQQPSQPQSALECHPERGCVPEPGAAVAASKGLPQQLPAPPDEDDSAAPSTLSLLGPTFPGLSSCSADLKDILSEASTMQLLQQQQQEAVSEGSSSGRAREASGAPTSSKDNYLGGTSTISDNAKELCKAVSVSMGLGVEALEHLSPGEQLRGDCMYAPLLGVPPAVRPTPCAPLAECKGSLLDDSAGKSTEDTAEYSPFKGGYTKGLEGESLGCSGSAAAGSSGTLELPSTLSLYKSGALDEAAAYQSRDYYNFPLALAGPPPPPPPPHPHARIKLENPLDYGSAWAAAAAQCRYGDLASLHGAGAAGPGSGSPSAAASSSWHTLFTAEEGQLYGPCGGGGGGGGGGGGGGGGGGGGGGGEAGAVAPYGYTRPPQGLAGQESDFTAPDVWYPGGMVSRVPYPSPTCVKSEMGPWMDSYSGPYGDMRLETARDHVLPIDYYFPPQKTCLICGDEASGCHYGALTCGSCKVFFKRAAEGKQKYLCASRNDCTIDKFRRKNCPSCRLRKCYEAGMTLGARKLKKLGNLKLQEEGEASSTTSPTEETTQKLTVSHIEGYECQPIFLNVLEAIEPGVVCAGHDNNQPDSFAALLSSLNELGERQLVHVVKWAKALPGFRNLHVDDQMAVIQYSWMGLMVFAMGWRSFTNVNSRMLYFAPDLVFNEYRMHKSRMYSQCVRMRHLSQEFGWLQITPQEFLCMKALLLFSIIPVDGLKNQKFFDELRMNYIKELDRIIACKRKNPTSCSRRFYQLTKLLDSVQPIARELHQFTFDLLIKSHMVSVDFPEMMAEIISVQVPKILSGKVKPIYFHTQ
Protocol: Monkey kidney cells, line CV1, lacking endogenous androgen receptor were cultured in Dulbecco's modified Eagle's medium (DMEM), supplemented with 10% (v/v) fetal calf serum, penicillin (100 IU/ml) and streptomycin (100 IU/ml) at 37° C. and 5% CO2.
For the transfection experiments, cells were seeded onto 6-well tissue culture plates (Nunc, Roskilde, Denmark) with a density of 1.2×10^5 cells per well and grown in DMEM medium supplemented with 10% (v/v) dextran-coated activated charcoal stripped serum. Six hours after seeding, the cells were transfected by using the Ca3(PO4)2 method. The human androgen receptor (hAR) expression vector (0.2 μg) was cotransfected with 1 μg of the reporter plasmid MMTV-luc and 0.2 μg of the cytomegalovirus (CMV)-driven β-galactosidase expression […], as internal control for transfection efficiency. After 14 hours, the medium was replaced either without (white bars in FIGS. […] 1), fractions (FIG. 2) or substances (FIG. 3). After an additional 48 hours, cells were harvested and assayed for luciferase and β-galactosidase activity.
Luciferase activity was determined by injecting luciferin and measuring light emission at 562 nm and expressed as relative light units (RLU) by using the values of β-galactosidase activity for normalisation of the luciferase activity. All transfection assays shown were performed in duplicate and were repeated at least twice.
For determining antiandrogenic activity in the various extracts from the bark of P. africanum, the extracts were used at a concentration of 300 μg/ml.
For determining the antiandrogenic activity in the fractions of the selective methylene chloride extracts, 2 μl of the respective fraction was used, corresponding to a final concentration of 30 μg/ml. Fractions F6 to F10 were additionally tested with 4 μl, corresponding to 60 μg/ml final concentration.

[2] = environment; cited from earlier work
[3] = cited from earlier work
LNCaP cells = assay: growth inhibition of human prostate carcinoma cells (cell counting); type: cell-based; settings: 0.1 μM OH—F
Source text: The growth of prostate cells and prostate cancer cells is originally dependent on androgens.
The cells were trypsinized and counted using a counting cell chamber on the indicated days.

With `CC(C)=CCC/C(C)=C/CNS(=O)(=O)c1ccc([N+](=O)[O-])c(C(F)(F)F)c1` [S14, N-[(2E)-3,7-Dimethylocta-2,6-diene-1-yl]-4-nitro-3-(trifluoromethyl)-benzenesulfonamide] the “inhibition of the AR-mediated transactivation, compared with NBBS (FIG. 6)” value (shortened to “inhibition … compared with NBBS (FIG. 6)”) [1] was “enhanced antiandrogenic activity”.
With `CC(C)=CCC/C(C)=C/CNS(=O)(=O)c1ccccc1` [S4, N-[(2E)-3,7-Dimethylocta-2,6-diene-1-yl]benzenesulfonamide] the “inhibition … compared with NBBS (FIG. 6)” value [1] was “enhanced the antiandrogenic activity”.
In the case of `CC(C)=CCC/C(C)=C/CNS(=O)(=O)c1cccc(C(F)(F)F)c1` [S11, N-[(2E)-3,7-dimethylocta-2,6-diene-1-yl]-3-(tri-fluoromethyl)benzenesulfonamide], the “inhibition … compared with NBBS (FIG. 6)” value [1] is reported as “enhanced antiandrogenic activity”.
In the case of `CCCCNS(=O)(=O)c1cccc(C(F)(F)F)c1` [S10, N-Butyl-3-(trifluoromethyl)benzenesulfonamide], the “inhibition … compared with NBBS (FIG. 6)” value [1] is reported as “enhanced antiandrogenic activity”.
In the case of `CCCCNS(=O)(=O)c1ccccc1` [NBBS, N-butylbenzenesulfonamide], the stability [2] is given as “very stable”, the “solubility in alcohols and benzene” value ([3]; alcohols and benzene) is given as “moderate solubility” and the solubility in water ([3]; water) is given as “practically insoluble”.
For `CCCCCCCCCCCCNS(=O)(=O)c1ccccc1` [S12, N-Dodecylbenzenesulfonamide], the “inhibition … compared with NBBS (FIG. 6)” value [1] was “weakened the androgen antagonistic potency” and the melting point was 59 to 61 °C.
With `CCCCNS(=O)(=O)c1ccc([N+](=O)[O-])c(C(F)(F)F)c1` [S13, N-Butyl-4-nitro-3-(trifluoromethyl)benzenesulfonamide] the “inhibition … compared with NBBS (FIG. 6)” value [1] was “enhanced antiandrogenic activity”.
In the case of `CC(C)(O)C(=O)Nc1ccc([N+](=O)[O-])c(C(F)(F)F)c1` [OH—F, hydroxyflutamide], the “proliferation of LNCaP cells (FIG. 4)” value (LNCaP cells) is reported as “did not lead to reduction in cell proliferation”.
In the case of `CCCCCNS(=O)(=O)c1ccccc1` [S9, N-Pentylbenzenesulfonamide], the “inhibition … compared with NBBS (FIG. 6)” value [1] is reported as “enhanced the antiandrogenic activity”.
